Assay results reported in patent publication US11780901B2, “Analogues of parathyroid hormone (1-34) that function as agonists of the parathyroid hormone receptor-1 and display modified activity profiles” (Wisconsin Alumni Research Foundation, priority 2013, dated 2023).
Changes are numbered by the printed parent chain.

Experiments:
PTHR2 [1] = target: T1, PTHR2 (Homo sapiens, UniProt P49190); experiment: PTHR2 activation, cAMP production (GloSensor) in HEK293 cells; type: cell-based; parameters: expressed in transfected cells; conditions: HEK293
T1 sequence (P49190 25-550): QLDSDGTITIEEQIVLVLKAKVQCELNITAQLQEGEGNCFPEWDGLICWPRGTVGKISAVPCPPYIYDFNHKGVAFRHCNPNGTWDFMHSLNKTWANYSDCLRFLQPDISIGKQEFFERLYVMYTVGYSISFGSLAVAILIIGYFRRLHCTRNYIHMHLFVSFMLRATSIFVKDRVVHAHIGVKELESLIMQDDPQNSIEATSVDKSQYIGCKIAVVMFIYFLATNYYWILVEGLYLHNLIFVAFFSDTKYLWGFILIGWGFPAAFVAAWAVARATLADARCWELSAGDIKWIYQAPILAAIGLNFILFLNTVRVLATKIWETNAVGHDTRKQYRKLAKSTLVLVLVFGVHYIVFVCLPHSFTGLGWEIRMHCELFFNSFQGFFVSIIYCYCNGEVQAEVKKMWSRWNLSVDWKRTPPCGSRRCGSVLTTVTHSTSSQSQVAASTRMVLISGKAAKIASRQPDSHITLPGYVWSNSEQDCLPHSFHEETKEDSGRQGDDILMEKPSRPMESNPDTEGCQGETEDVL
Summary of the method: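 HEK293 cells stably expressing PTHR2; receptor activation read as cAMP production by GloSensor luminescence. Dose-response curves fit with a four-parameter sigmoidal equation; data are mean±s.e.m. of four independent measurements.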

PTHR2 [2] = target: T1, PTHR2; experiment: Wash-out assay, duration of PTHR2 activation; type: cell-based; parameters: expressed in transfected cells; host or cells: cells stably expressing PTHR2; conditions: for Normalized ligand-off AUC: after washout
Source text: Duration of activation for PTHR1 and PTHR2. To assess the duration of PTHR1 and PTHR2 activation induced by α/β-peptides 14 and 15, the time course of cAMP production by each receptor was examined after stimulation with an agonist and subsequent washing of the cells to remove unbound peptide (wash-out assay). […] During the initial “ligand-on” phase, cells stably expressing PTHR1 or PTHR2 were stimulated with an agonist concentration corresponding to ˜EC80; the medium contained D-luciferin. […] After the addition of fresh medium containing D-luciferin, the luminescence decay is measured. The area under the “ligand-off” curve (AUC) reflects the duration of signaling, which may be related to residence time of the agonist on the receptor but could have other origins at the molecular level.

PTHR1 [3] = target: T2, PTHR1 (Homo sapiens, UniProt Q03431); experiment: PTHR1 activation, cAMP production (GloSensor) in HEK293 cells; type: cell-based; parameters: expressed in transfected cells
T2 sequence (Q03431 27-593): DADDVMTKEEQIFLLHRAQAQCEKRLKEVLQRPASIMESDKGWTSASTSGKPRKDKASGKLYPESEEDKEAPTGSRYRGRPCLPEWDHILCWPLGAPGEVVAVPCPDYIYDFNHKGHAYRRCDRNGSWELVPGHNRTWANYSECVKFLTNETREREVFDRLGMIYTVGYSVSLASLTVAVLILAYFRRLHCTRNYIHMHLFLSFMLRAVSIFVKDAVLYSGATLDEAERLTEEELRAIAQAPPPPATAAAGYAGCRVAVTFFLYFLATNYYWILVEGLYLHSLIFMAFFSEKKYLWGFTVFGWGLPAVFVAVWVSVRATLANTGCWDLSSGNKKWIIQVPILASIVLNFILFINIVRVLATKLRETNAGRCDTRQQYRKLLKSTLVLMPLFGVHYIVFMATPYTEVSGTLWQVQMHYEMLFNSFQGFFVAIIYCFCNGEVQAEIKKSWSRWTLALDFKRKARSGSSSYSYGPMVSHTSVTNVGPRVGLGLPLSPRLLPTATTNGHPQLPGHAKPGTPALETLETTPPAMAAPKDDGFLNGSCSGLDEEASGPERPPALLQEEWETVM

PTHR1-1363Y = target: T3, PTHR1-1363Y (Homo sapiens, UniProt Q03431, I363Y); experiment: Activation of PTHR1 mutant PTHR1-1363Y; type: cell-based; conditions: data not shown
T3 construct: expressed in transfected cells
T3 sequence (Q03431 27-593 I363Y): T2 sequence (Q03431 27-593) with I337Y
Source text: (§1) Reciprocal point mutations of PTHR1 were investigated to see if they would enhance the signaling activity of PTHR2-selective agonists.

PTHR1 [4] = target: T2, PTHR1; experiment: Functional selectivity (Gs activation/cAMP production vs βarr recruitment); type: cell-based; parameters: expressed in transfected cells; host or cells: cells stably expressing PTHR1; conditions: cAMP activation vs βarr1 and βarr2 recruitment, relative to PTH (1-34)
Description: More specifically, the initial studies that yielded the compounds disclosed and claimed herein were conducted to determine whether there is a correlation between βarr recruitment and receptor residence time of a PTHR1 agonist. The initial studies were thus conducted in two steps. First, the functional selectivity (Gs activation as indicated by cAMP production vs. βarr recruitment) of several PTHR1 agonists that display substantial differences in signaling duration were evaluated. Second, novel PTHR1 agonists were designed that have high functional selectivity and evaluated the signaling duration of these biased agonists.
The functional selectivity of BA058 is more significant than that of PTHrP. […] LA-PTH is a long-acting PTH analog. […] The middle panels in FIG. 2 are graphs depicting, from left-to-right: βarr1 and βarr2 recruitment, presented as normalized BRET signals (bioluminescence resonance energy transfer) as a function of the log of the peptide concentration, and cAmp activation presented as normalized RLU signals (relative light units) as a function of the log of the peptide concentration. Red=PTH. Orange=LA=LA−PTH. Blue=BA058. Green=PTHrP. (BRET assays are well known and suitable kits are available commercially. See, for example, Promega's “NanoBRET” kits, catalogs nos. N1821 and N1811; Promega Corporation, Fitchburg, Wis.). The table at the bottom of FIG. 2 presents the pEC50 and Emax values for the […] and βarr2 recruitment and cAMP activation. FIG. 3 presents the data for the bias of the activity—either toward βarr recruitment or cAMP activation.
Incorporating (R*)-β^2Leu/(D)-Leu at the 7th position or (R*)-β^2Nle at the 8th position leads to high Gs-biased agonism. […] (D)-Nle is poorly tolerated at the 8th position for both cAMP signaling and βarr recruitment. The top panels in FIG. 5 are graphs depicting, from left-to-right: βarr1 and βarr2 recruitment, presented as normalized BRET signals as a function of the log of the peptide concentration, and cAmp activation presented as normalized RLU signals as a function of the log of the peptide concentration. […]

R^0 state of PTHR1 = target: T4, R^0 state of PTHR1 (Homo sapiens, UniProt Q03431); conditions: relative to PTH (1-34); cited from earlier work
T4 construct: expressed in transfected cells; host or cells: COS-7, transient; membranes
T4 sequence (Q03431 27-593): T2 sequence (Q03431 27-593)

PTHR1-L2891 = target: T5, PTHR1-L2891 (Homo sapiens, UniProt Q03431, L289I); experiment: Activation of PTHR1 mutant PTHR1-L2891; type: cell-based; conditions: data not shown
T5 construct: expressed in transfected cells
T5 sequence (Q03431 27-593 L289I): T2 sequence (Q03431 27-593) with L263I
Source text: as §1

Compound	Emax (PTHR2 [1]) [%]	Normalized ligand-off AUC (PTHR2 [2]; PTHR2, PTH(1-34)-NH2 = 100, listed as α/β-peptide 1)	Normalized ligand-off AUC (PTHR2 [2]; PTHR2, PTH(1-34)-NH2 = 100, listed as α/β-peptide 15)	Emax (PTHR2 [2]; read-out: Normalized ligand-on Emax) [%]	Emax (PTHR1 [3]; HEK293) [%]	PTHR1 agonist potency decline (PTHR1 [3]; relative to PTH(1-34)-NH2) [fold]	agonist activity at PTHR1-1363Y (in words) (PTHR1-1363Y)	signaling bias / functional selectivity (in words) (PTHR1 [4])	R0 affinity (in words) (R^0 state of PTHR1)	Normalized ligand-on Emax (PTHR2 [2]; PTHR2, agonist at ~EC80, PTH(1-34)-NH2 = 100)	PTHR1 agonist activity (in words) (PTHR1 [3]; wild-type PTHR1)	agonist activity at PTHR1-L2891 (in words) (PTHR1-L2891)
CC[C@H](C)[C@H](NC(=O)[C@H](CCC(=O)O)NC(=O)[C@H](CO)NC(=O)[C@@H](CNC(=O)[C@@H](N)CO)C(C)C)C(=O)N[C@@H](CCC(N)=O)CC(=O)N[C@@H](CC(C)C)C(=O)N[C@@H](CCSC)C(=O)N[C@@H](Cc1c[nH]cn1)C(=O)N[C@@H](CC(N)=O)C(=O)N[C@@H](CC(C)C)C(=O)NCC(=O)N[C@@H](CCCCN)C(=O)N[C@@H](Cc1c[nH]cn1)C(=O)N[C@@H](CC(C)C)C(=O)N[C@@H](CC(N)=O)C(=O)N[C@@H](CO)C(=O)N[C@@H](CCSC)C(=O)N[C@@H](CCC(=O)O)C(=O)N[C@@H](CCCNC(=N)N)C(=O)N[C@H](C(=O)N[C@@H](CCC(=O)O)C(=O)N[C@@H](Cc1c[nH]c2ccccc12)C(=O)N[C@@H](CC(C)C)C(=O)N[C@@H](CCCNC(=N)N)C(=O)N[C@@H](CCCCN)C(=O)N[C@@H](CCCCN)C(=O)N[C@@H](CC(C)C)C(=O)N[C@@H](CCC(N)=O)C(=O)N[C@@H](CC(=O)O)C(=O)N[C@H](C(=O)N[C@@H](Cc1c[nH]cn1)C(=O)N[C@@H](CC(N)=O)C(=O)N[C@@H](Cc1ccccc1)C(N)=O)C(C)C)C(C)C [Ligand 15]	104 ± 2	197 ± 16	more prolonged signaling	103 ± 1	79 ± 6	~100	even less susceptible to activation					
LA-PTH: long-acting PTH analog (AVAEIQLMHQRAKWIQDARRRAFLHKLIAEIHTAEI; Long-acting (LA)-PTH, a parathyroid hormone analog)								biased toward βarr1 and βarr2 recruitment relative to cAMP activation	high R0 affinity			
TIP39-NH2: tuberoinfundibular peptide of 39 residues, naturally PTHR2-selective agonist [reference compound]							very weak agonist			99 ± 1	does not activate	very weak agonist
